Values quoted from earlier work as cited in publication PMC7395068, “The evolution of strategies to minimise the risk of human drug-induced liver injury (DILI) in drug discovery and development” (Archives of Toxicology, 2020).
Where two headings read alike, the source gives them in different places.

Tests used:
[1] = tested on: HepG2 cells; settings: cited from earlier work
[2] = tested on: RMPCC's; settings: cited from earlier work
[3] = cited from earlier work
[4] = tested on: primary human hepatocytes, NIH3T3 fibroblasts, BSEP, CYP3A4; settings: In vitro Assay; ref Schadt 2015; cited from earlier work
[5] = tested on: human hepatocytes; settings: cited from earlier work
[6] = cited from earlier work; remark: listed apart in the source
[7] = tested on: hu-MPCC; settings: cited from earlier work
[8] = tested on: THLE or HepG2 cells, isolated mitochondria, BSEP; settings: In vitro Assay; ref Aleo 2019; cited from earlier work
[9] = tested on: hLiMTs; settings: cited from earlier work
[10] = tested on: HepG2 C3A spheroid, BSEP, Glu/Gal in HepG2 cells, bioactivation; settings: cited from earlier work
[11] = tested on: PHH; settings: cited from earlier work
[12] = tested on: THLE-Null and THLE-3A4 cells; settings: In vitro Assay; ref Gustafsson 2014; cited from earlier work
[13] = tested on: HepG2 cells, primary human hepatocytes; settings: cited from earlier work
[14] = tested on: PHH spheroids; settings: In vitro Assay; ref Vorrink 2018; cited from earlier work
[15] = tested on: HepG2 cells; settings: cited from earlier work; remark: listed apart in the source
[16] = ref Chen 2011; cited from earlier work
[17] = tested on: isolated mouse liver mitochondria; settings: In vitro Assay; ref Porceddu 2012; cited from earlier work
[18] = tested on: rBsep; settings: In vitro Assay; ref Dawson 2012; cited from earlier work
[19] = In vitro Assay, ref O'Brien 2006
[20] = In vitro Assay, ref Khetani 2012
[21] = In vitro Assay, ref Proctor 2017
[22] = In vitro Assay, ref Garside 2014
[23] = In vitro Assay, ref Persson 2013

Row | Structure (SMILES) | Structural based (HCI) [1, 19] | RMPCC's [2, 20] | In vivo DILI ([3]; ref Khetani 2012) | In vivo DILI ([3]; ref Schadt 2015) | In vivo DILI ([3]; ref Xu 2008) | Cellular toxicity (3T3 cells) [4] | Combined Assay [4] | GSH adduct HML [4] | Hepatocyte cellular toxicity [4] | Structural based (HCI) ([5]; In vitro Assay, ref Xu 2008) | DILI +VE (5-8), DILI -VE (-4) ([6]; ref Chen 2016) | DILI severity category ([6]; ref Chen 2016) | HMPCC's [7, 20] | Partition Hybrid HRM Score [8] | Ro2 Hybrid HRM Score [8] | In vivo DILI ([3]; […]) | In vivo DILI ([3]; ref Aleo 2019) | hLiMTs ATP <20 x Cmax [14] | In vivo DILI ([3]; ref Vorrink 2018) | DILI Score (FDA) (1-8) [16] | other results
1 | CC(=O)Oc1ccccc1C(=O)O [aspirin] | +VE | -VE | -VE | -VE | -VE | -VE | -VE | -VE | -VE | -VE | +VE | vLess-DILI-Concern | -VE | – | – | – | – | – | – | – | In vivo DILI ([3]; ref O'Brien 2006): +VE; MitoTox 3T3 [4]: -VE; TDI CYP3A4 [4]: -VE; hBSEP inhibition [4]: -VE
2 | CCc1oc2ccccc2c1C(=O)c1cc(Br)c(O)c(Br)c1 [benzbromarone] | – | +VE | +VE | – | +VE | – | – | – | – | +VE | +VE | vMost-DILI-Concern | +VE | +VE | +VE | +VE | +VE | – | – | – | hLiMTs ATP <100uM [9, 21]: +VE (IC50 threshold of 100 µM); Bayesian Machine Learning ([10]; In vitro Assay, ref Williams 2019): +VE; In vivo DILI ([3]; ref Gustafsson 2014): +VE; In vivo DILI ([3]; ref Proctor 2017): +VE; In vivo DILI ([3]; ref Williams 2019): +VE; PHH ATP <100uM [11, 21]: +VE (IC50 threshold of 100 µM); THLE-Null [12]: +VE; THLE-Null/3A4 [12]: +VE
3 | CNCCC(Oc1ccc(C(F)(F)F)cc1)c1ccccc1 (centres unmarked) [fluoxetine] | – | – | -VE | -VE | -VE | +VE | -VE | -VE | -VE | – | +VE | vLess-DILI-Concern | – | – | – | -VE | +VE | -VE | -VE | 3 | Cluster 1-6 +VE Assay [13]: +VE; hLiMTs ATP <100uM [9]: +VE (key: +VE: IC50 threshold of 100 µM); Bayesian Machine Learning [10]: +VE; RMPCC's [2]: -VE; Cluser analysis [15]: +VE; In vivo DILI ([3]; ref Garside 2014): +VE; In vivo DILI ([3]; ref Persson 2013): +VE; In vivo DILI ([3]; ref Proctor 2017): +VE; In vivo DILI ([3]; ref Tolosa 2012): +VE; In vivo DILI ([3]; ref Williams 2019): +VE; MitoTox 3T3 [4]: -VE; TDI CYP3A4 [4]: -VE; hBSEP inhibition [4]: -VE; Structural based (HCI) [5]: -VE; PHH ATP <100uM [11]: -VE; HMPCC's [7]: -VE
4 | CC(C(=O)O)c1ccc(-c2ccccc2)c(F)c1 (centres unmarked) [flurbiprofen] | – | +VE | +VE | -VE | +VE | -VE | -VE | -VE | -VE | +VE | -VE | Ambiguous DILI-concern | +VE | +VE | +VE | – | – | – | – | 3 | Cluster 1-6 +VE Assay [13, 22]: -VE; In vivo DILI ([3]; ref Garside 2014): +VE; In vivo DILI ([3]; ref Gustafsson 2014): +VE; MitoTox 3T3 [4]: -VE; TDI CYP3A4 [4]: -VE; hBSEP inhibition [4]: -VE; THLE-Null [12]: -VE; THLE-Null/3A4 [12]: -VE
5 | CCN(CC)CC(=O)Nc1c(C)cccc1C [lidocaine] | +VE | +VE | – | – | – | – | – | – | – | – | – | – | +VE | – | – | – | – | – | – | – | Cluser analysis [15, 23]: -VE; Structural based (HCI) [15, 23]: -VE; in vitro data EC20<=2uM [17]: +VE
6 | Cc1cccc(Nc2ccccc2C(=O)O)c1C [mefenamic acid] | – | +VE | +VE | – | +VE | – | – | – | – | +VE | +VE | vMost-DILI-Concern | +VE | – | – | +VE | – | +VE (IC20 < 20 × Cmax.tot cut-off) | +VE | – | hLiMTs ATP <100uM [9, 21]: +VE (IC50 threshold of 100 µM); in vitro data EC2<=1x Cmax [17]: +VE; in vitro data EC20<=2uM [17]: +VE; In vivo DILI ([3]; ref Porceddu 2012): +VE; In vivo DILI ([3]; ref Proctor 2017): -VE; PHH ATP <100uM [11, 21]: +VE (IC50 threshold of 100 µM)
7 | Cn1cc[nH]c1=S [methimazole] | – | -VE | – | – | – | – | – | – | – | – | – | – | -VE | -VE | -VE | – | – | – | – | – | Inhibition of rBsep cutoff<1& cmax u>.2 [18]: -VE; Inhibition of rBsep cutoff<3 [18]: -VE
8 | CNCCC=C1c2ccccc2CCc2ccccc21 [nortriptyline] | – | +VE | +VE | – | +VE | – | – | – | – | -VE | +VE | vMost-DILI-Concern | +VE | +VE | +VE | – | +VE | +VE (IC20 < 20 × Cmax.tot cut-off) | +VE | 8 | –
9 | CN1C(C(=O)Nc2ccccn2)=C(O)c2ccccc2S1(=O)=O [piroxicam] | +VE | +VE | +VE | -VE | +VE | -VE | -VE | -VE | -VE | -VE | +VE | vLess-DILI-Concern | -VE | -VE | +VE | +VE | +VE | -VE | +VE | 3 | Cluser analysis [15, 23]: -VE; Structural based (HCI) [15, 23]: -VE; in vitro data EC2<=1x Cmax [17]: +VE; in vitro data EC20<=2uM [17]: +VE; In vivo DILI ([3]; ref O'Brien 2006): +VE; In vivo DILI ([3]; ref Persson 2013): +VE; In vivo DILI ([3]; ref Porceddu 2012): +VE; MitoTox 3T3 [4]: -VE; TDI CYP3A4 [4]: -VE; hBSEP inhibition [4]: -VE
10 | CC(=O)[C@H]1CC[C@H]2[C@@H]3CCC4=CC(=O)CC[C@]4(C)[C@H]3CC[C@]12C [progesterone] | – | -VE | +VE | – | +VE | – | – | – | – | -VE | +VE | vLess-DILI-Concern | -VE | – | – | -VE | – | -VE | -VE | – | –
11 | NC(=O)c1cnccn1 [pyrazinamide] | +VE | -VE | +VE | – | +VE | – | – | – | – | -VE | +VE | vLess-DILI-Concern | +VE | +VE | -VE | +VE | +VE | – | – | 3 | Cluster 1-6 +VE Assay [13, 22]: -VE; in vitro data EC2<=1x Cmax [17]: +VE; in vitro data EC20<=2uM [17]: +VE; In vivo DILI ([3]; ref Garside 2014): +VE; In vivo DILI ([3]; ref O'Brien 2006): +VE; In vivo DILI ([3]; ref Porceddu 2012): +VE
12 | C=C[C@H]1C[N@@]2CC[C@H]1C[C@H]2[C@H](O)c1ccnc2ccc(OC)cc12 [quinine] | – | – | – | – | – | – | – | – | – | – | – | – | – | – | – | – | – | +VE (IC20 < 20 × Cmax.tot cut-off) | – | – | Structural based (HCI) [1]: +VE; RMPCC's [2]: +VE; In vivo DILI ([3]; in vivo): +VE; DILI +VE (5-8), DILI -VE (-4) ([6]; in vivo): +VE; DILI severity category ([6]; in vivo): vLess-DILI-Concern; HMPCC's [7]: +VE
13 | O=c1n(CCCN2CCN(c3cccc(Cl)c3)CC2)nc2ccccn12 [trazodone] | – | +VE | +VE | – | +VE | – | – | – | – | +VE | +VE | vLess-DILI-Concern | +VE | +VE | +VE | – | +VE | +VE (IC20 < 20 × Cmax.tot cut-off) | +VE | 5 | –
